From patent EP0745595A1, “3-(3-Aryloxyphenyl)-1-(substituted methyl)-s-triazine-2,4,6-oxo or thiotrione herbicidal agents” (American Cyanamid Company, priority 1995, dated 1996)

Assays:
Format in all cases: in vivo
[1] = tested on: ABUTILON THEOPHRASTI, MEDIC.; assay: Preemergence herbicidal evaluation, ABUTH (Velvetleaf); conditions: four to five weeks after treatment
How it was run: (§1)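 Injury scored visually (0–9; stand, vigor, malformation, size, chlorosis) versus untreated control, four to five weeks post-treatment. Application: aqueous acetone spray onto freshly planted soil cups, equivalent to about 0.125 to 0.50 kg/ha, plants then kept under standard greenhouse care.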

[2] = tested on: ECHINOCHLOA CRUS-GALLI, (L) BEAU; assay: Preemergence herbicidal evaluation, ECHCG (Barnyardgrass); conditions: four to five weeks after treatment
How it was run: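 In this preemergence herbicide test, cups holding seeds of ECHCG sown in potting soil over roughly one inch of soil were treated and then grown under conventional greenhouse care. Tests were ended four to five weeks after treatment, and injury was scored 0-9 from stand, vigor, malformation, size, chlorosis and overall appearance relative to a control.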

[3] = tested on: TRITICUM AESTIVUM, CV. APOLLO; assay: Preemergence herbicidal evaluation, TRZAWO (Wheat, Winter, CV. APOLLO); conditions: four to five weeks after treatment
How it was run: as §1

ECHINOCHLOA CRUS-GALLI = assay: Preemergence evaluation in the presence of transplanted rice under flooded paddy conditions (Example 43), ECHCG (Barnyard Grass); parameters: key: visual rating on a 0-9 scale, compared with control; conditions: applied three days after sowing, 25 to 30 days after treatment
Procedure: (§2) Results of herbicide evaluation are expressed on a rating scale (0-9). The scale is based upon a visual observation of plant stand, vigor, malformation, size, chlorosis and overall plant appearance as compared with a control.
(§3) In this example, Deluvian paddy soil (Toyokawa paddy soil) is placed in plastic pots, 100cm^2 x 9 cm in depth. Water is added to the level of the soil surface in the pot and the mixture is paddled 3 cm in depth.
(§4) Pots are then variously sown with monocotyledenous weed seeds and tubers at 0-2 cm in soil depth, as well as transplanted rice plants at the 2.5 leaf stage. The rice plants are transplanted at about 3 cm soil depth. Water is then added to all of the pots to 3 cm deep and kept at a depth of 3 cm for the duration of the test. Test compounds are applied in the manner described in Example 42 three days after transplanting the rice plants and sowing the weed seeds and tubers. The pots are then placed on greenhouse benches and cared for in the conventional manner. Tests are examined at 25 to 30 days after treatment and rated according to the rating system provided in Example 40. The compounds evaluated are reported by compound number given in Example 40.

SAGITTARIA PYGMAEA = assay: Preemergence evaluation in the presence of transplanted rice under flooded paddy conditions (Example 43), SAGPY (Arrowhead (Pygmaea)); parameters: key: visual rating on a 0-9 scale, compared with control; conditions: applied three days after sowing, 25 to 30 days after treatment
Procedure: as §2, §3, §4

[…] = Preemergence evaluation in the presence of transplanted rice under flooded paddy conditions (Example 43), MOOVA (Monochoria); conditions: applied three days after sowing, 25 to 30 days after treatment
Procedure: as §2, §3, §4

CYPERUS DIFFORMIS = assay: Preemergence evaluation in the presence of transplanted rice under flooded paddy conditions (Example 43), CYPDI (Flatsedge, smallflower); parameters: key: visual rating on a 0-9 scale, compared with control; conditions: applied three days after sowing, 25 to 30 days after treatment
Procedure: as §2, §3, §4

SCIRPUS JUNCOIDES = assay: Preemergence evaluation in the presence of transplanted rice under flooded paddy conditions (Example 43), SCPJU (Bulrush, Japanese); parameters: key: visual rating on a 0-9 scale, compared with control; conditions: applied three days after sowing, 25 to 30 days after treatment
Procedure: as §2, §3, §4

[4] = tested on: ORYZA SATIVA, L. CV. KOSHIHIKARI; assay: Post-transplant rice evaluation under flooded paddy conditions (Example 43), ORYSAK (Rice, Koshihikari); parameters: key: visual rating on a 0-9 scale, compared with control; conditions: applied three days after transplanting rice, 25 to 30 days after treatment
Procedure: as §2, §3, §4

CYPERUS SEROTINUS = assay: Preemergence evaluation in the presence of transplanted rice under flooded paddy conditions (Example 43), CYPSE (Flatsedge, perennial); parameters: key: 0-9 visual rating scale vs. untreated control; conditions: applied three days after sowing, 25 to 30 days after treatment
Procedure: as §2, §3, §4

## COC(=O)Cn1c(=O)[nH]c(=O)n(-c2cc(Oc3ccc(C(F)(F)F)cc3Cl)ccc2[N+](=O)[O-])c1=O [Compound 8, Methyl 3-{5-[(2-chloro-α,α,α-trifluoro-p-tolyl)oxy]-2-nitrophenyl}tetrahydro-2,4,6-trioxo-s-triazine-1(2H)-acetate]
[1]; Rate 0.125 kg/ha
  ABUTH rating: 9.0
[1]; Rate 0.250 kg/ha
  ABUTH rating: 9.0
[1]; Rate 0.500 kg/ha
  ABUTH rating: 9.0
[2]; Rate 0.125 kg/ha
  ECHCG rating: 0.0
[2]; Rate 0.250 kg/ha
  ECHCG rating: 0.0
[2]; Rate 0.500 kg/ha
  ECHCG rating: 0.0
[3]; Rate 0.125 kg/ha
  TRZAWO rating: 3.0
[3]; Rate 0.250 kg/ha
  TRZAWO rating: 3.0
[3]; Rate 0.500 kg/ha
  TRZAWO rating: 3.0
ECHINOCHLOA CRUS-GALLI; 0.032 kg/ha
  Herbicidal effect rating, ECHCG: 8.0
ECHINOCHLOA CRUS-GALLI; 0.063 kg/ha
  Herbicidal effect rating, ECHCG: 8.0
ECHINOCHLOA CRUS-GALLI; 0.125 kg/ha
  Herbicidal effect rating, ECHCG: 9.0
ECHINOCHLOA CRUS-GALLI; 0.250 kg/ha
  Herbicidal effect rating, ECHCG: 9.0
SAGITTARIA PYGMAEA; 0.032 kg/ha
  Herbicidal effect rating, SAGPY: 1.0
SAGITTARIA PYGMAEA; 0.063 kg/ha
  Herbicidal effect rating, SAGPY: 3.0
SAGITTARIA PYGMAEA; 0.125 kg/ha
  Herbicidal effect rating, SAGPY: 6.0
SAGITTARIA PYGMAEA; 0.250 kg/ha
  Herbicidal effect rating, SAGPY: 8.0
[…]; 0.032 kg/ha
  Herbicidal effect rating, MOOVA: 7.0
[…]; 0.063 kg/ha
  Herbicidal effect rating, MOOVA: 9.0
[…]; 0.125 kg/ha
  Herbicidal effect rating, MOOVA: 9.0
[…]; 0.250 kg/ha
  Herbicidal effect rating, MOOVA: 9.0
CYPERUS DIFFORMIS; 0.032 kg/ha
  Herbicidal effect rating, CYPDI: 7.0
CYPERUS DIFFORMIS; 0.063 kg/ha
  Herbicidal effect rating, CYPDI: 9.0
CYPERUS DIFFORMIS; 0.125 kg/ha
  Herbicidal effect rating, CYPDI: 9.0
CYPERUS DIFFORMIS; 0.250 kg/ha
  Herbicidal effect rating, CYPDI: 9.0
SCIRPUS JUNCOIDES; 0.032 kg/ha
  Herbicidal effect rating, SCPJU: 1.0
SCIRPUS JUNCOIDES; 0.063 kg/ha
  Herbicidal effect rating, SCPJU: 5.0
SCIRPUS JUNCOIDES; 0.125 kg/ha
  Herbicidal effect rating, SCPJU: 7.0
SCIRPUS JUNCOIDES; 0.250 kg/ha
  Herbicidal effect rating, SCPJU: 8.0
[4]; 0.032 kg/ha
  Herbicidal effect rating, ORYSAK: 2.0
[4]; 0.063 kg/ha
  Herbicidal effect rating, ORYSAK: 3.0
[4]; 0.125 kg/ha
  Herbicidal effect rating, ORYSAK: 2.0
[4]; 0.250 kg/ha
  Herbicidal effect rating, ORYSAK: 6.0

## COC(=O)Cn1c(=O)n(C)c(=O)n(-c2cc(Oc3c(F)cc(C(F)(F)F)cc3Cl)ccc2Br)c1=O [Compound 2, Methyl 3-{2-bromo-5-[(2-chloro-α,α,α,6-tetrafluoro-p-tolyl)oxy]phenyl}tetrahydro-5-methyl-2,4,6-trioxo-s-triazine-1(2H)-acetate]
ECHINOCHLOA CRUS-GALLI; 0.025 kg/ha
  Herbicidal effect rating, ECHCG: 9.0
ECHINOCHLOA CRUS-GALLI; 0.050 kg/ha
  Herbicidal effect rating, ECHCG: 9.0
ECHINOCHLOA CRUS-GALLI; 0.100 kg/ha
  Herbicidal effect rating, ECHCG: 9.0
ECHINOCHLOA CRUS-GALLI; 0.250 kg/ha
  Herbicidal effect rating, ECHCG: 9.0
SAGITTARIA PYGMAEA; 0.025 kg/ha
  Herbicidal effect rating, SAGPY: 3.0
SAGITTARIA PYGMAEA; 0.050 kg/ha
  Herbicidal effect rating, SAGPY: 7.0
SAGITTARIA PYGMAEA; 0.100 kg/ha
  Herbicidal effect rating, SAGPY: 9.0
SAGITTARIA PYGMAEA; 0.250 kg/ha
  Herbicidal effect rating, SAGPY: 9.0
CYPERUS SEROTINUS; 0.025 kg/ha
  Herbicidal effect rating, CYPSE: 4.0
CYPERUS SEROTINUS; 0.050 kg/ha
  Herbicidal effect rating, CYPSE: 7.0
CYPERUS SEROTINUS; 0.100 kg/ha
  Herbicidal effect rating, CYPSE: 9.0
CYPERUS SEROTINUS; 0.250 kg/ha
  Herbicidal effect rating, CYPSE: 9.0
[…]; 0.025 kg/ha
  Herbicidal effect rating, MOOVA: 9.0
[…]; 0.050 kg/ha
  Herbicidal effect rating, MOOVA: 9.0
[…]; 0.100 kg/ha
  Herbicidal effect rating, MOOVA: 9.0
[…]; 0.250 kg/ha
  Herbicidal effect rating, MOOVA: 9.0
CYPERUS DIFFORMIS; 0.025 kg/ha
  Herbicidal effect rating, CYPDI: 9.0
CYPERUS DIFFORMIS; 0.050 kg/ha
  Herbicidal effect rating, CYPDI: 9.0
CYPERUS DIFFORMIS; 0.100 kg/ha
  Herbicidal effect rating, CYPDI: 9.0
CYPERUS DIFFORMIS; 0.250 kg/ha
  Herbicidal effect rating, CYPDI: 9.0
SCIRPUS JUNCOIDES; 0.025 kg/ha
  Herbicidal effect rating, SCPJU: 8.0
SCIRPUS JUNCOIDES; 0.050 kg/ha
  Herbicidal effect rating, SCPJU: 9.0
SCIRPUS JUNCOIDES; 0.100 kg/ha
  Herbicidal effect rating, SCPJU: 9.0
SCIRPUS JUNCOIDES; 0.250 kg/ha
  Herbicidal effect rating, SCPJU: 9.0
[4]; 0.025 kg/ha
  Herbicidal effect rating, ORYSAK: 1.0
[4]; 0.050 kg/ha
  Herbicidal effect rating, ORYSAK: 3.0
[4]; 0.100 kg/ha
  Herbicidal effect rating, ORYSAK: 5.0
[4]; 0.250 kg/ha
  Herbicidal effect rating, ORYSAK: 9.0
